As a reminder, the IC50 is the midpoint of a concentration-inhibition curve.

Structures are written as SMILES.

The test system of the first test is AKT protein phosphorylated on serine 473 (P-AKT-S473) in PC3 human prostate carcinoma cells. Kind of test: pAKT expression in PC3 human prostate carcinoma cells, MSD Multi-spot Biomarker detection (Test A). It is filed as cell-based. The following applies: Homo sapiens, PC-3, PC3 cells, 1 to 2 h incubation, P-AKT-S473, absolute IC50, mean of two independent experiments. Put shortly: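 Lysate pAKT-S473 measured by electrochemiluminescent sandwich immunoassay; inhibition versus cell-free background and DMSO-only wells, IC50 averaged over two experiments.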
`CC1CN(c2cc(=O)[nH]c(CC(=O)N3CCc4c(Cl)cccc43)n2)CCO1` (stereo not drawn) [Example 28b, 2-[2-(4-chloro-2,3-dihydroindol-1-yl)-2-oxoethyl]-6-(2-methylmorpholin-4-yl)-3H-pyrimidin-4-one] returned a half-inhibitory concentration (IC50) of 12 nM.
Still for that read-out and setting: to `CC1Cc2c(Br)cccc2N1C(=O)Cc1nc(N2CCOCC2)c(F)c(=O)n1C` (stereo not drawn) [Example 30a, 5-fluoro-2-[2-((+)-4-bromo-2-methyl-2,3-dihydroindol-1-yl)-2-oxoethyl]-3-methyl-6-morpholin-4-yl-3H-pyrimidin-4-one] belongs 16 nM; to `C[C@H]1Cc2ccccc2N1C(=O)Cc1nc(N2CCOC(CF)C2)cc(=O)[nH]1` (stereo partly drawn) [Example 30b, 6-(2-fluoromethylmorpholin-4-yl)-2-[2-((S)-2-methyl-2,3-dihydroindol-1-yl)-2-oxoethyl]-3H-pyrimidin-4-one], 44 nM.
On to `CC1Cc2ccc(F)cc2N1C(=O)Cc1nc(N2CCOCC2)c(F)c(=O)[nH]1` (stereo not drawn) [Example 32a, 5-fluoro-2-[2-((−)-6-fluoro-2-methyl-2,3-dihydroindol-1-yl)-2-oxoethyl]-6-morpholin-4-yl-3H-pyrimidin-4-one], for which the concentration for half-maximal inhibition (IC50) worked out at 40 nM.
On to `O=C(Cc1nc(N2CCOCC2)cc(=O)[nH]1)N1CCc2c(N3CCOCC3)cccc21` [Example 33d, 6-(morpholin-4-yl)-2-{2-[4-(morpholin-4-yl)-2,3-dihydro-1H-indol-1-yl]-2-oxoethyl}pyrimidin-4(3H)-one], for which inhibition was half-maximal at 111 nM (IC50).
`CC1Cc2c(ccc(F)c2Cl)N1C(=O)Cc1nc(N2CCOCC2)c(F)c(=O)[nH]1` (stereo not drawn) [Example 34a, 5-Fluoro-2-[2-(4-chloro-5-fluoro-2-methyl-2,3-dihydroindol-1-yl)-2-oxoethyl]-6-morpholin-4-yl-3H-pyrimidin-4-one] returned an IC50 of 2 nM.
Still for that read-out and setting: then `C[C@H]1Cc2ccccc2N1C(=O)Cc1nc(N2CCOCC2)c(Cl)c(=O)[nH]1` [Example 35a, 5-chloro-2-[2-((S)-2-methyl-2,3-dihydroindol-1-yl)-2-oxoethyl]-6-morpholin-4-yl-3H-pyrimidin-4-one], with 140 nM; and `C[C@@H]1Cc2ccccc2N1C(=O)Cc1nc(N2CCOCC2)c(Cl)c(=O)[nH]1` [Example 36a, 5-chloro-2-[2-((R)-2-methyl-2,3-dihydroindol-1-yl)-2-oxoethyl]-6-morpholin-4-yl-3H-pyrimidin-4-one], with 55 nM.
Compound `C[C@H]1Cc2ccccc2N1C(=O)Cc1nc(N2CCOCC2)c(Br)c(=O)[nH]1` [Example 37a, 5-bromo-2-[2-((S)-2-methyl-2,3-dihydroindol-1-yl)-2-oxoethyl]-6-morpholin-4-yl-3H-pyrimidin-4-one] came in with a half-maximal inhibitory concentration (IC50) of 56 nM. This IC50 and that of the compound before are within 1.5-fold of each other.
The same measure, in the same setting: then `O=C(Cc1nc(N2CCOCC2)c(F)c(=O)[nH]1)N1c2ccccc2C[C@@H]1CO` [Example 38a, 5-Fluoro-2-[2-((+)-2-hydroxymethyl-2,3-dihydroindol-1-yl)-2-oxoethyl]-6-morpholin-4-yl-3H-pyrimidin-4-one], with 1140 nM; and `O=C(Cc1nc(N2CCOCC2)cc(=O)[nH]1)N1c2ccccc2CC1CF` (stereo not drawn) [Example 38d, 2-[2-((+)-2-Fluoromethyl-2,3-dihydroindol-1-yl)-2-oxoethyl]-6-morpholin-4-yl-3H-pyrimidin-4-one], with 15 nM.
Still for that read-out and setting: to `O=C(Cc1nc(N2CCOCC2)c(F)c(=O)[nH]1)N1c2ccccc2C[C@H]1CO` [Example 39a, 5-Fluoro-2-[2-((−)-2-hydroxymethyl-2,3-dihydroindol-1-yl)-2-oxoethyl]-6-morpholin-4-yl-3H-pyrimidin-4-one] belongs 568 nM; to `O=C(Cc1nc(N2CCOCC2)cc(=O)n1-c1ccccc1)N1CCc2ccccc21` [Example 39d, 2-[2-(2,3-Dihydroindol-1-yl)-2-oxoethyl]-6-morpholin-4-yl-3-phenyl-3H-pyrimidin-4-one], 51 nM; to `CC(C)[C@@H]1Cc2ccccc2N1C(=O)Cc1nc(N2CCOCC2)cc(=O)[nH]1` [Example 40c, (+)-2-[2-(2-isopropyl-2,3-dihydroindol-1-yl)-2-oxoethyl]-6-morpholin-4-yl-3H-pyrimidin-4-one], 243 nM.
Same read-out and setting: then `CC(C(=O)N1CCc2c(F)cccc21)c1nc(N2CCOCC2)cc(=O)[nH]1` (stereo not drawn) [Example 41c, 2-[1-(4-fluoro-2,3-dihydro-1H-indol-1-yl)-1-oxopropan-2-yl]-6-(morpholin-4-yl)pyrimidin-4(3H)-one], with 29 nM.
Take `Nn1c(CC(=O)N2CCc3ccccc32)nc(N2CCOCC2)cc1=O` [Example 41d, 3-amino-2-[2-(2,3-dihydro-1H-indol-1-yl)-2-oxoethyl]-6-(morpholin-4-yl)pyrimidin-4(3H)-one]: the IC50 was 131 nM. Compared with the last compound, the IC50 is about 4.5-fold higher.
With `N#Cn1c(CC(=O)N2CCc3ccccc32)nc(N2CCOCC2)cc1=O` [Example 42d, 2-[2-(2,3-dihydro-1H-indol-1-yl)-2-oxoethyl]-4-(morpholin-4-yl)-6-oxopyrimidine-1(6H)-carbonitrile], the IC50 worked out at 24 nM.
The same measure, in the same setting: then `N#Cc1cccc2c1CCN2C(=O)Cc1nc(N2CCOCC2)cc(=O)[nH]1` [Example 46c, 1-{[4-(morpholin-4-yl)-6-oxo-1,6-dihydropyrimidin-2-yl]acetyl}-2,3-dihydro-1H-indole-4-carbonitrile], with 101 nM.

Still in this test, the particulars now being: PC3 cells, 1 to 2 h incubation, P-AKT-S473, absolute IC50, mean of two independent experiments.
For the compound `CC1Cc2c(Cl)cccc2N1C(=O)Cc1nc(N2CCOCC2)c(F)c(=O)n1C` (stereo not drawn) [Example 29a, 5-fluoro-2-[2-((−)-4-chloro-2-methyl-2,3-dihydroindol-1-yl)-2-oxoethyl]-3-methyl-6-morpholin-4-yl-3H-pyrimidin-4-one], the midpoint of inhibition, the IC50, lay at 20 nM.
Same read-out and setting: to `CC1Cc2c(Br)cccc2N1C(=O)Cc1nc(N2CCOCC2)c(F)c(=O)n1C` (stereo not drawn) [Example 31a, 5-fluoro-2-[2-((−)-4-bromo-2-methyl-2,3-dihydroindol-1-yl)-2-oxoethyl]-3-methyl-6-morpholin-4-yl-3H-pyrimidin-4-one] belongs 15 nM; to `CC1Cc2ccc(F)cc2N1C(=O)Cc1nc(N2CCOCC2)c(F)c(=O)[nH]1` (stereo not drawn) [Example 33a, 5-Fluoro-2-[2-((+)-6-fluoro-2-methyl-2,3-dihydroindol-1-yl)-2-oxoethyl]-6-morpholin-4-yl-3H-pyrimidin-4-one], 77 nM; to `CC1Cc2ccc(F)cc2N1C(=O)Cc1nc(N2CCOCC2)cc(=O)[nH]1` (stereo not drawn) [Example 35c, 2-{2-[(+)-6-fluoro-2-methyl-2,3-dihydro-1H-indol-1-yl]-2-oxoethyl}-6-(morpholin-4-yl)pyrimidin-4(3H)-one], 27 nM.
On the same count and under the same terms, then `CC1Cc2ccc(F)cc2N1C(=O)Cc1nc(N2CCOCC2)cc(=O)[nH]1` (stereo not drawn) [Example 36c, 2-{2-[(−)-6-fluoro-2-methyl-2,3-dihydro-1H-indol-1-yl]-2-oxoethyl}-6-(morpholin-4-yl)pyrimidin-4(3H)-one], with 9 nM; and `O=C(Cc1nc(N2CCOCC2)cc(=O)[nH]1)N1c2ccccc2CC1CF` (stereo not drawn) [Example 40d, 2-[2-((−)-2-Fluoromethyl-2,3-dihydroindol-1-yl)-2-oxoethyl]-6-morpholin-4-yl-3H-pyrimidin-4-one], with 13 nM.

The values are drawn from patent publication US9133168B2, “Pyrimidine derivatives, preparation thereof, and pharmaceutical use thereof as akt(pkb) phosphorylation inhibitors” (SANOFI, priority 2010, dated 2015).
